Measurements: US11191749B2, “Pharmaceutical compositions for combination therapy” (GENFIT, priority 2017, dated 2021)

Test system: TGFβ1-induced hHSC (α-SMA)
Assay: α-SMA ELISA in TGFβ1-induced human primary hepatic stellate cells (single agents and combination matrix, EOB/EOHSA)
Type: cell-based
Conditions: 1 h preincubation, TGFβ1 1 ng/ml, 48 h, FIG. 1
Method: After 48 hours of incubation, the expression of α-SMA was measured by ELISA. […] Data are presented as mean (triplicates)±standard deviation (SD).
Combinations were tested in a dose-response matrix format and analyzed according to the excess over Bliss (EOB) additivism model. […] Data are presented as mean of quadruplicates. (B) EOB scores were calculated as described in Materials and Methods. […] Data are presented as mean (quadruplicates)±standard deviation (SD).
Combinations were tested in a dose-response matrix format and analyzed according to the excess over Bliss (EOB) additivism model. […] Data are presented as mean (quadruplicates)±standard deviation (SD).
Then, 2-fold and 4-fold higher and lower concentrations were selected.
The human primary hepatic stellate cells (hHSC) (Innoprot) were cultured under standard conditions, as described above.

SMILES: O=C(Nc1ncc([N+](=O)[O-])s1)c1ccccc1O [TZ, tizoxanide]
- antifibrotic activity (α-SMA) as single agent: profile similar to the parent drug
